Data set [1] deals with 14-3-3 eta/c-RAF (Homo sapiens, UniProt P04049+Q04917). The experiment in a line: Stabilization of 14-3-3 eta (unknown origin)/ c-Raf (unknown origin). In kind it is protein-complex assay.
Data set [2] can be described thus: Inhibition of V-ATPase (unknown origin). Also on record: species or system Homo sapiens.
Data set [3] relates to MCF7. Nature of the data set: Cytotoxicity against human MCF7 cells. In kind it is functional, cell-based.
Data set [4] can be described thus: Inhibition of PI3K (unknown origin). Also noted: species or system Homo sapiens.
In data set [5] the test system is HeLa. The experiment in a line: Antimitotic activity against human HeLa cells. In kind it is functional, cell-based.
The target in data set [6] is Tubulin (Homo sapiens) (UniProt P68371+Q9H4B7+P0DPH7+P68366+Q13509+Q71U36+P04350+Q3ZCM7+P07437+P68363+Q9BQE3+Q6PEY2+Q13885+Q9BVA1+Q9BUF5). Nature of the data set: Inhibition of microtubule polymerization in human HeLa cells at 20 uM relative to control. Format: cell-based.
Data set [7] concerns the target Tubulin. The experiment in a line: Binding affinity to tubulin (unknown origin) assessed as dissociation constant. Format: protein-complex assay, Homo sapiens.
A short description of data set [8]: Anti-tumor activity against mouse lewis lung carcinoma cells allografted in mouse assessed as reduction in tumor growth at 2 mg/kg, po. Format: functional. Also noted: scale not given: the % may be the effect or the level left.
Data set [9] is described as follows: Inhibition of full-length human MEK.
The target of data set [10] is T1, Heat shock factor protein 1 (Homo sapiens, UniProt Q00613).
T1 sequence (Q00613 whole entry): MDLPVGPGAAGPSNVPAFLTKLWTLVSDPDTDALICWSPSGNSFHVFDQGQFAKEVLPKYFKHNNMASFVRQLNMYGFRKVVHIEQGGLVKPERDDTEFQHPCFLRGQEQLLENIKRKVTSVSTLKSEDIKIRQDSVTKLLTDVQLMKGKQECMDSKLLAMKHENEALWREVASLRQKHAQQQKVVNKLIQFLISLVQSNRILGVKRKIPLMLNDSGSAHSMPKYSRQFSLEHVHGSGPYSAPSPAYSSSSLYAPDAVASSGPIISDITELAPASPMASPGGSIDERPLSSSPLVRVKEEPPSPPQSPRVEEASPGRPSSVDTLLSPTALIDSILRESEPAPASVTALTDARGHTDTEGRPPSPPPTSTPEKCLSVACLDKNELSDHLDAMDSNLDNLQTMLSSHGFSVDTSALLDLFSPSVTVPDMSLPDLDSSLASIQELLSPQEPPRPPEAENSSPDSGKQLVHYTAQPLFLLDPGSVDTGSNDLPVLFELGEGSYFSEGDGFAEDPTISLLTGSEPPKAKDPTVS
Nature of the data set: Induction of HSF-1 (unknown origin) degradation assessed as ATPase activity by colorimetric assay.

A short description of data set [11]: Cytotoxicity against human endothelial cells. Format: toxicity, cell-based. The conditions noted are these: endothelial cell.

In brackets after ≈: the same amount, converted by molar mass.

Sequence of 14-3-3 eta/c-RAF (P04049 whole entry): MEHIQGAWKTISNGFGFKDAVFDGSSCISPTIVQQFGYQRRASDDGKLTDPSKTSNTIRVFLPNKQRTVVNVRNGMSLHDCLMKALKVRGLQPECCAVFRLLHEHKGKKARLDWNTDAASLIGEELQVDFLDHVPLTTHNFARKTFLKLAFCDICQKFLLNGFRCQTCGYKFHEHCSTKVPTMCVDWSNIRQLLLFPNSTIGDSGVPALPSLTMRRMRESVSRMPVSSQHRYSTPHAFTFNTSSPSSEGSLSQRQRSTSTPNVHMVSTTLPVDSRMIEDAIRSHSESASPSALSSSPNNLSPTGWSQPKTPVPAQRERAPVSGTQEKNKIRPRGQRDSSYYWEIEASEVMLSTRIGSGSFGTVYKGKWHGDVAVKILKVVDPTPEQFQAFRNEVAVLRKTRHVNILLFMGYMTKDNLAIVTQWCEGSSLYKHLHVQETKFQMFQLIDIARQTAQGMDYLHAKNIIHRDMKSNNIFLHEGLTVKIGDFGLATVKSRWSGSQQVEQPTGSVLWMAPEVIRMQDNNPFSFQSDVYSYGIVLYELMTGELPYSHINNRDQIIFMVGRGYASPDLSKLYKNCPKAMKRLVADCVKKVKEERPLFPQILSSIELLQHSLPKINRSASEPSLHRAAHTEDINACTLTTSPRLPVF
Sequence of 14-3-3 eta/c-RAF (Q04917 whole entry): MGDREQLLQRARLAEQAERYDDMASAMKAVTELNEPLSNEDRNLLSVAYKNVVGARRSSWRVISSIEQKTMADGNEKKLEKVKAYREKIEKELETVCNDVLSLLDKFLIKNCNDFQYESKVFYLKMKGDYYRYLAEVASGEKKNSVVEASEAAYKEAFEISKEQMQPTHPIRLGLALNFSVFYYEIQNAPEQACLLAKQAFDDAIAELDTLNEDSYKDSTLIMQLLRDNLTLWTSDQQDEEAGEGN

In data set [1], `COC[C@H]1O[C@@H](O[C@@H]2C3=C(C(C)C)CC[C@]3(C)/C=C3\[C@@H](CC[C@]3(O)COC)[C@@H](C)[C@H]2O)[C@H](O)[C@H]2OC3O[C@]21O[C@@]3(C)[C@@H]1CO1` displayed a half-maximal effective concentration (EC50) of 60 µM.

Consider `CC[C@@H](C)[C@@H]1NC(=O)[C@H]2CCCN2C(=O)[C@@H](CC(C)C)OC(=O)CCNC(=O)[C@H](C)N(C)C(=O)[C@H](C(C)C)N(C)C1=O`, for which it took 5.4 µM to reach half-maximal inhibition in data set [2] (IC50).

In the case of `C[C@]12CCC3=C(C(=O)c4occ5c4[C@]3(C)CCC5=O)[C@@H]1CC[C@@H]2O`, in data set [3], the IC50 came to 15 µM.

In turn, `C[C@@]12c3ccc4c(c3C(=O)c3occ(c31)C(=O)C[C@H]2O)CCC4=O` [DEMETHOXYVIRIDIN] displayed an IC50 in [4] of 0.0066 µM.

Regarding `COC1=CC(=O)C[C@@H](C)[C@]12Oc1c(Cl)c(OC)cc(OC)c1C2=O` [GRISEOFULVIN], half-maximal inhibition in data set [5] (IC50) required 25 µM. Besides, in data set [6], the inhibition is 75%. Also, the Kd in [7] is 300 µM.

In the case of `C[C@H]1C/C=C/[C@H]2[C@@H]3O[C@]3(C)[C@@H](C)[C@H]3[C@H](Cc4ccccc4)NC(=O)[C@]32OC(=O)O/C=C/[C@@](C)(O)C1=O` [CYTOCHALASIN E], the Activity in data set [8] came to 72%.

`COc1cc(O)c2c(c1)CCC[C@H](O)[C@H](O)C(=O)/C=C\C[C@H](C)OC2=O` registered a half-maximal inhibitory concentration (IC50) in [9] of 4 µM.

On to `C[C@H]1CCC/C=C/C(=O)c2c(O)cc(O)cc2CC(=O)O1` [DEHYDROCURVULARIN], for which, in data set [10], the IC50 stood at 15.3 µM.

`CO[C@@H]1[C@H](OC(=O)NC(=O)CCl)CC[C@]2(CO2)[C@H]1[C@@]1(C)O[C@@H]1CC=C(C)C` [O-CHLOROACETYLCARBAMOYLFUMAGILLOL] had an IC50 in data set [11] of 0.01 ng/mL (≈ 0.0249 nM).

Usually EC50 stands for the concentration needed to bring the measured effect to its halfway point. As usually defined, the IC50 is the concentration that gives 50% inhibition. By inhibition is commonly meant the share of the control response that was lost under treatment. By Kd is commonly meant the constant that tells how readily two partners part at equilibrium.

The values are drawn from ChEMBL document CHEMBL5233254, “Anticancer fungal natural products: Mechanisms of action and biosynthesis” (Eur J Med Chem, 2020).
